This passage reports mass density results from the NIST ThermoML archive (doi:10.1016/j.fluid.2011.09.011).

Numbers after ± are expanded uncertainties.

For the series the following is noted: 298.15 K; 101.33 kPa; Liquid; Vibrating tube method.

As usually defined, the mass density is the mass of a sample divided by its volume.

For `CCCCn1cc[n+](C)c1.F[B-](F)(F)F` [1-butyl-3-methylimidazolium tetrafluoroborate], the mass density was found to be 1203.76 ± 7.9 kg/m3.
The value for `CCOS(=O)(=O)[O-].CCn1cc[n+](C)c1` [1-ethyl-3-methylimidazolium ethyl sulfate] was 1236.55 ± 8.3 kg/m3.
